Laboratory results: US20230210984A1, “ADOPTIVE IMMUNOTHERAPY” (The Council of the Queensland Institute of Medical Research, priority 2019, published 2023)

Tests used:
[1] = test system: EBV-associated cell lines (nasopharyngeal and gastric cancer cell lines); experiment: MTS cell viability assay, IC50 of inhibitors; format: cell-based
Protocol: FIG. 9: Determining the IC50 value of MEK1/2 inhibitors. Representation of the cell viability performed using MTS assay after the indicated cell lines were incubated with 0.1 μM-5 μM of selumatinib (left panel) and trametinib (right panel) for 48 hours. The data are represented as the mean±SD from three independent experiments.
FIG. 14: Determining the IC50 value of JQ1 inhibitors. Representation of the cell viability performed using MTS assay after the indicated cell lines were incubated with 0.5 μM-10 μM of JQ1 for 48 hours. The data are represented as the mean±SD from three independent experiments.
Cell viability assay was performed using the CellTiter 96® AQueous one cell viability assay reagent (Promega, WI, USA) for three biological replicates per EBV-associated cancer cell lines in triplicate. Briefly, the cancer cells (target cells) were plated at a density of 5000 cells per well in an overall media volume of 200 μL on a 96-well tissue-culture plate (BD Falcon™). The effector AdE1-LMPpoly transfected T cells were freshly thawed in RPMI-1640 with 10% FCS and 120 IU/mL of recombinant IL-2 at 37° C. and […]. Post 24 hrs of plating and incubation at 37° C. and […], the effector T cells were mixed to the target cells at a gradient ratio of effector to target (E:T) of 5:1-100:1. The exact number of T cells (To) used per E:T ratio (ET) was independently used as control alongside PBS treated target cells (Es) and sole media (M0). After 24 hrs of incubation at 37° C. and […], MTS was added to each well (1:100 dilution in media) and was incubated for 1 hour following which the plate was centrifuged at 1,200×g at room temperature for 5 min and absorbance of the mixture at an optical density of 490 nm was measured via a microplate reader. The relative cell viability was calculated using the following formula: […]
To determine the upregulation of MAPK pathway in EBV-associated solid cancers, we first identified the IC50 value of MEK1/2 inhibitors (AZD6244 or selumetanib and trematinib) across nasopharyngeal and gastric cancer cell lines (with drug concertation ranging from 0.1 μM-5 μM). […] In the next set of experiments, we wanted to determine the impact of MEK1/2 inhibition in combination with allogeneic EBV-specific T cells on EBV-associated solid cancers. As such, we treated the respective EBV-associated cell lines (both gastric and nasopharyngeal) individually or in combination with MEK1/2 inhibitors (both selumetanib and trematinib) and EBV-specific T cells.
Similarly, we targeted MYC-dependent cancer intrinsic pathway using JQ1 inhibitor by first determining the IC50 value of the inhibitor across nasopharyngeal and gastric cancer cell lines (with drug concertation ranging from 0.5 μM-10 μM). […] To characterized the impact of JQ1 inhibition in combination with allogeneic EBV-specific T cells on EBV-associated cancer cells, we used IC25 value JQ1 (2.5 μM) alongside an effector to target ratio of 25:1 of the respective HLA matched allogeneic EBV-specific T cells in vitro. […] We also performed phenotypic characterization, using flow cytometry, of SNU719 and C666.1 cells after 16 hours of individual and dual treatment in vitro.

[2] = test system: SNU719 gastric cancer xenograft; experiment: SNU719 xenograft, anti-PD1 and allogenic EBV-specific T cells in vivo; parameters: species or system NOD/SCID mice
Excerpt: FIG. 6: Impact of PD1 inhibition on therapeutic efficacy of allogeneic EBV-specific cytotoxic T cells in vivo. (A) Heat-map representing gene signature of 326 genes observed RNA isolated from in the tumour infiltrating (TILs) CD8+ cells performed using NanoString Immune function panel. The TILS were isolated from SNU719 derived tumour xenograft from six independent mice (LT5-10) after 5 days post a single dose of TI_001 treatment when the tumour size reached 40 mm^2. The gene expression observed in TILS was compared to unstimulated (LT11) and EBV-pepmix stimulated (LT12). (B) Statistical representation comparing the (i) percentage of CD3+CD8+ population; (ii) percentage of CD8+PD1+ population; (iii) percentage of CD8+LAG3+ population; and (iv) percentage of CD8+ TIM3+ population of viable TILS (described in (A)) and compared to unstimulated T cells (T cell therapy). Error bars represent the ±SEM from three independent experiments. P-values were calculated using one-way ANOVA. Statistical representation of SNU719 derived xenograft indicating (C) tumour growth; (D) tumour weight (in gms) at ethical limit of tumour growth; (E) percent survival post T cell, anti-PD1 and combination of T cell and anti-PD1 therapy observed in respective treatment groups compared to mock (PBS) treated control group. The statistical significance of data of tumour weight was analysed by one-way ANOVA. The mice survival was monitored over the indicated period of time and the statistical significance of data was analysed by log-rank test: ns not significant, **p<0.01, ***p<0.001, and ****p<0.0001.
A total of 12-24 female NOD/SCID mice (depending on the experiment) of 7-8 weeks old were used in this study. The mice were subjected to irradiation with 0.8 Gy cobalt-60 and after 4 hours, were subcutaneously injected with 5×10^6 cells of respective EBV-associated cancer cells with a 29-gauge needle. The mice were monitored for tumour growth, weight and body score thrice weekly. Once the tumour was palpable, the mice were randomised into respective groups and were treated with respective dosage of PBS or 20×10^6 tumour HLA matched allogenic EBV-specific T-cells. The tumour size in these mice were measured thrice weekly using the Vernier Calipers. To calculate tumour area the following formula was used: tumour area=B*S where B=largest tumour measurement and S=the smallest, based on two-dimensional caliper measurements as previously described.
Based on these observations, we hypothesized that a combination of checkpoint inhibitor and T cell therapy may offer better therapeutic benefit against EBV-associated tumours.

| Compound | IC50 ([1]; 48 h, read-out: IC50 (~50% reduction in cell viability)) [µM] | IC25 value (sub IC50 value) ([1]; concentration chosen for in vitro combination treatment) [µM] | SNU719 gastric cancer outgrowth ([2]; Nivolumab 24 hrs after T cell infusion, combination vs monotherapy and mock-treated groups, p<0.0001) | tumour size (tumour weight) ([2]; combination with T cells vs monotherapy groups) | survival post therapy ([2]; combination with T cells vs monotherapy or mock-treated group, p<0.0001) | better survival in comparison to only T cell treated group ([2]; combination with T cells, p<0.01) [fold] |
| --- | --- | --- | --- | --- | --- | --- |
| CC(=O)Nc1cccc(-n2c(=O)n(C3CC3)c(=O)c3c(Nc4ccc(I)cc4F)n(C)c(=O)c(C)c32)c1 [trematinib] | ~2.5 | 1 |  |  |  |  |
| Nivolumab: anti-PD1 antibody |  |  | significantly reduced | significantly reduced tumour size | significantly improved | ~2 |
